Counter-ions that a name gives are not always drawn.
Columns and labels:
[1] = system: platinum-resistant ovarian cancer; conditions: patients with platinum-resistant disease; cited from earlier work
[2] = cited from earlier work
[3] = system: HRG stimulation of p180 tyrosine phosphorylation in MCF7 cells; experiment: Inhibition of HRG-stimulated p180 tyrosine phosphorylation in MCF7 cells (antiphosphotyrosine immunoblot, reflectance densitometry); type: cell-based, human; conditions: MCF7, 0.2 nM rHRGβ1
Procedure: MCF7 cells were seeded in 24-well plates (1×10^5 cells/well) and grown to about 85% confluency for two days.
MCF7 cells were plated in 24-well plates and monoclonal antibodies to HER2 were added to each well and incubated for 30 minutes at room temperature; then rHRGβ1177-244 was added to each well to a final concentration of 0.2 nM, and the incubation was continued for 8 minutes. Media was carefully aspirated from each well, and reactions were stopped by the addition of 100 μl of SDS sample buffer (5% SDS, 25 mM DTT, and 25 mM Tris-HCl, pH 6.8). Each sample (25 μl) was electrophoresed on a 4-12% gradient gel (Novex) and then electrophoretically transferred to polyvinylidene difluoride membrane. Antiphosphotyrosine (4G10, from UBI, used at 1 μg/ml) immunoblots were developed, and the intensity of the predominant reactive band at Mr ˜180,000 was quantified by reflectance densitometry, as described previously (Holmes et al. Science 256:1205-1210 (1992); Sliwkowski et al. J. Biol. Chem. 269:14661-14665 (1994)).

MDA-MB-175 cells = experiment: Growth inhibition of MDA-MB-175 cells, crystal violet staining, 4 days; type: cell-based; conditions: 10 μg/mL
Procedure: Experiment was carried out in medium containing 1% serum. HER2 antibodies or medium alone were added and the cells were incubated for 2 hours at 37° C. Subsequently rHRGβ1 (1 nM) or medium alone were added and the cells were incubated for 4 days. Monolayers were washed and stained/fixed with 0.5% crystal violet. To determine cell proliferation the absorbance was measured at 540 nm.
HER2 levels in MDA-MB-175 cells are 4-6 times higher than the level found in normal breast epithelial cells and the HER2-HER4 receptor is constitutively tyrosine phosphorylated in MDA-MB-175 cells. […] Inhibition of cell proliferation by 4D5 is dependent on the HER2 expression level (Lewis et al. Cancer Immunol. Immunother. 37:255-263 (1993)). […] However this effect could be overcome by exogenous HRG.

SK-BR-3 cells = experiment: Growth inhibition of SK-BR-3 cells, crystal violet staining, 4 days, with or without rHRGβ1; type: cell-based, human; conditions: FIG. 4B
[4] = system: mitogen-activated protein kinase (MAPK) activation in MCF7 cells; experiment: EGF, TGF-α or HRG mediated activation of MAPK in MCF7 cells (Western blot); type: cell-based, human; conditions: 200 nM antibody, 1 nM EGF, 1 nM TGF-α or 0.2 nM HRG
Procedure: Many growth factor receptors signal through the mitogen-activated protein kinase (MAPK) pathway. These dual specificity kinases are one of the key endpoints in signal transduction pathways that ultimately triggers cancer cells to divide. […] MCF7 cells (10^5 cells/well) were plated in serum containing media in 12-well cell culture plates. The next day, the cell media was removed and fresh media containing 0.1% serum was added to each well. This procedure was then repeated the following day and prior to assay the media was replaced with serum-free binding buffer (Jones et al. J. Biol. Chem. 273:11667-74 (1998); and Schaefer et al. J. Biol. Chem. 274:859-66 (1999)). […] Cells were then treated with 1 nM EGF, 1 nM TGF-α or 0.2 nM HRG for 15 minutes. The reaction was stopped by aspirating the cell medium and then adding 0.2 mL SDS-PAGE sample buffer containing 1% DTT. MAPK activation was assessed by Western blotting using an anti-active MAPK antibody (Promega) as described previously (Jones et al. J. Biol. Chem. 273:11667-74 (1998)).

[5] = system: Akt activation in MCF7 breast cancer cells; conditions: cited from earlier work
advanced ovarian cancer = conditions: one of 3 subjects with advanced ovarian cancer; cited from earlier work

In the case of `Nc1ccn([C@@H]2O[C@H](CO)[C@@H](O)C2(F)F)c(=O)n1` [Gemcitabine, 2′-deoxy-2′,2′-difluorocytidine monohydrochloride (b-isomer)], the partial response rate [1] is listed as 16%, the “toxicity when combined with other chemotherapeutic agents” value ([2]; combined with taxanes, anthracyclines, platinums) is listed as “without any significant increases or unexpected toxicities” and the “combined incidence of nausea and vomiting” value ([2]; single agent) is listed as 69%. For the same molecule, the incidence of anemia ([2]; single agent) was 68%, the incidence of diarrhea ([2]; single agent) was 19% and the incidence of neutropenia ([2]; single agent) was 63%. For the same molecule, the incidence of rash ([2]; single agent) was 30%, the “nausea and vomiting, grade III incidence” value ([2]; single agent) was 13% and the “nausea and vomiting, grade IV incidence” value ([2]; single agent) was 1%. For the same molecule, the “rash, grade III incidence” value ([2]; single agent) was 1%.
With “2C4: Murine monoclonal antibody binding the extracellular domain of HER2, ATCC HB-12697 [Mutant 2C4]” the “generation of HRG-induced tyrosine phosphorylation signal at Mr 180,000” value [3] was “significantly inhibited”, the “growth inhibitory effect on MDA-MB-175 cells” value (MDA-MB-175 cells) was “strong growth inhibitory effect” and the “inhibitory effect on HER2 overexpressing cell line SK-BR-3” value (SK-BR-3 cells) was “no inhibitory effect”. The “block of EGF, TGF-α and HRG mediated activation of MAPK” value [4] was “significantly blocks”, the “basal level of Akt activation” value ([5]; MCF7, absence of heregulin addition) was “further reduced” and the “heregulin-mediated Akt activation” value ([5]; MCF7, Agus et al. 2002) was “inhibits”.
For “Pertuzumab: Antibody with light and heavy chain SEQ ID NOS. 16 and 17; humanized version 574 variable domains with human IgG1 constant region”, the response (advanced ovarian cancer) is listed as “durable partial response”.
For `CC[C@@]1(O)C(=O)OCc2c1cc1n(c2=O)Cc2cc3c(CN(C)C)c(O)ccc3nc2-1` [Topotecan], the partial response rate [1] is listed as 6%.

Reference: patent publication US20120107391A1, “THERAPY OF PLATINUM-RESISTANT CANCER” (Genentech, Inc., priority 2004, published 2012)
